Test results published in article PMC3764026, “Adaptive Evolution of Escherichia coli to an α-Peptide/β-Peptoid Peptidomimetic Induces Stable Resistance” (PLoS ONE, 2013).
Converted amounts (≈) assume the structure as drawn. “And” between values parts separate entries of the source, which are not always exact repeats. Identical values can stand only once. Like-named read-outs stand apart in the source and are kept apart here.

How the values were obtained:
[1] = system: Escherichia coli ATCC 25922; type: cell-based; details: wild-type E. coli ATCC 25922; MHB pH 7.4, 5×10^5 CFU/mL, 37°C, 18–20 h
Method: All experiments were performed with Escherichia coli ATCC 25922. Stock cultures of the wild-type strain and lineage isolates were stored at –80°C in 4% (w/v) glycerol, 0.5% (w/v) glucose, 2% (w/v) skimmed milk powder and 3% (w/v) tryptone soy powder. Lineage populations were frozen at –80°C in 50% (w/v) glycerol. All experiments were performed at 37°C. Experiments were carried out in cation-adjusted Mueller Hinton II broth (MHB) (Becton Dickinson 212322) adjusted to pH 7.4 or in 1% (w/v) peptone (Becton Dickinson 211677) for MIC determination of natural AMPs. Brain Heart Infusion (BHI) (CM1135) with agar (VWR 20768.292) 1.5% as gelling agent was used throughout for colony plating.
(§1) MIC was determined by using the micro-dilution method according to guidelines of the Clinical and Laboratory Standards Institute. Peptidomimetic 1 and erythromycin 1∶2 serial dilutions were prepared from 1024 µg/mL stock solutions to give a final range of 512-0.5 µg/mL in the wells. Ampicillin 1∶2 serial dilutions were prepared from a 256 µg/mL stock solution to give a final range of 128-0.13 µg/mL in the wells. Polymyxin B and gentamicin 1∶2 serial dilutions were prepared from a 64 µg/mL stock solution to give a final range of 32-0.03 µg/mL in the wells. Also, 1∶2 serial dilutions of the AMPs KR-12, IsCTp, melittin and PEP-1-K were prepared from 64 µg/mL stock solutions to give a final range of 32-0.03 µg/mL in the wells; however this was performed in 1% peptone instead of in MHB since activity was drastically diminished in the latter (not shown).
The population lineages were tested for their susceptibility towards peptidomimetic 1, polymyxin B, gentamicin and ampicillin. Single-culture isolates selected from these populations were additionally tested against peptidomimetic 1, polymyxin B, erythromycin and the five reference AMPs. To estimate the level of cross-resistance to closely related peptidomimetics, MIC determinations were performed for peptidomimetics 2 and 3 (Figure 1) towards selected isolates. […]

[2] = system: E. coli ATCC 25922 control lineages; type: cell-based, Escherichia coli; details: two technical duplicates; for MIC against peptidomimetic 1 after selection: MHB
Method: (§2) Continuous selection of resistance was performed for peptidomimetic 1 (Figure 1) and for the clinically relevant natural antimicrobial peptide, polymyxin B. A bacterial suspension of a single colony of E. coli ATCC 25922 was re-inoculated (10 µl) five times in unsupplemented MHB (990 µl). It was then re-inoculated in MHB supplemented with peptidomimetic 1 (ten lineages) or polymyxin B (ten lineages), and after ten re-inoculations at constant peptidomimetic or polymyxin B concentration, the concentrations were doubled. […] Four lineages grown in MHB with MilliQ water were included as control. Re-inoculations were performed twice a day, but were reduced to once a day when growth was slower as assessed by turbidity of the cultures. The total number of passages (supplemented with peptidomimetic/AMP) was 77 times equivalent to approx. 500 generations. For each increase in concentration the lineages were preserved as freezing stocks. Ten colony isolates were randomly selected from each lineage population at 32×MIC and preserved as freezing stocks.
as §1
(§3) The population lineages were tested for their susceptibility towards peptidomimetic 1, polymyxin B, gentamicin and ampicillin. Single-culture isolates selected from these populations were additionally tested against peptidomimetic 1, polymyxin B, erythromycin and the five reference AMPs. To estimate the level of cross-resistance to closely related peptidomimetics, MIC determinations were performed for peptidomimetics 2 and 3 (Figure 1) towards selected isolates. The bacterial suspensions were grown overnight in MHB at 37°C for determination of the population MIC, or individual isolates were grown overnight on non-selective BHI agar at 37°C. […] In all experiments, bacterial cells were suspended in 0.9% saline to give a turbidity of 0.13 at OD546 (approximately 1×10^8 CFU/mL) and diluted in MHB pH 7.4 to a final concentration of 5×10^5 CFU/mL in each well. Polypropylene plates (Nunc 442587) were used to minimize peptide binding, and the incubation time was 18–20 hours at 37°C. Incubation time was additionally extended up to 44 hours for the individual isolates due to a potential effect of growth rate on the outcome, but no effect was seen of this (not shown). MIC was found in a minimum of two technical (population MIC) or biological (isolate MIC) replicates as the lowest concentration of the AMP or antibiotic where no visible growth was observed.
(§4) Frozen stocks were reconditioned in unsupplemented MHB media for five transfers (∼35 generations) at 37°C. The heritability of resistance was established through MIC determination of bacterial populations as described above.

[3] = system: E. coli ATCC 25922 lineages adapted to peptidomimetic 1; type: cell-based, Escherichia coli; details: two technical duplicates; for MIC against peptidomimetic 1 after selection: MHB pH 7.4, 37°C, 18–20 h
Method: as §2, §1, §3, §4

[4] = system: E. coli ATCC 25922 lineages adapted to polymyxin B; type: cell-based, Escherichia coli; details: polymyxin B-exposed lineages, ~35 generations unsupplemented; became similar to controls; not shown
Method: as §2, §1, §3, §4

[5] = system: Escherichia coli ATCC 25922; assay: Continuous selection experiment; type: cell-based
Method: as §2

CC(=O)N[C@@H](CCCCNC(=N)N)C(=O)N(CCC(=O)N[C@@H](CCCCNC(=N)N)C(=O)N(CCC(=O)N[C@@H](CCCCNC(=N)N)C(=O)N(CCC(=O)N[C@@H](CCCCNC(=N)N)C(=O)N(CCC(=O)N[C@@H](CCCCNC(=N)N)C(=O)N(CCC(=O)N[C@@H](CCCCNC(=N)N)C(=O)N(CCC(N)=O)[C@@H](C)c1ccccc1)[C@@H](C)c1ccccc1)[C@@H](C)c1ccccc1)[C@@H](C)c1ccccc1)[C@@H](C)c1ccccc1)[C@@H](C)c1ccccc1 [peptidomimetic 1]
wt MIC [1]: 8 mg/L | MIC against peptidomimetic 1 after 35 generations w/o selection ([2]; Control 1 lineage (MilliQ water)): 16 to 32 mg/L | MIC against peptidomimetic 1 after selection ([2]; Control 1 lineage (MilliQ water, no peptidomimetic)): 32 mg/L (≈ 15 µM) | MIC against peptidomimetic 1 after 35 generations w/o selection ([2]; Control 2 lineage (MilliQ water)): 8 mg/L (≈ 3.75 µM) | MIC against peptidomimetic 1 after selection ([2]; Control 2 lineage (MilliQ water, no peptidomimetic)): 8 mg/L (≈ 3.75 µM) | MIC against peptidomimetic 1 after 35 generations w/o selection ([3]; peptidomimetic-exposed lineage 1, five passages in unsupplemented MHB): 128 to 256 mg/L | MIC against peptidomimetic 1 after 35 generations w/o selection ([3]; peptidomimetic-exposed lineage 2, five passages in unsupplemented MHB): 256 mg/L (≈ 120 µM) | MIC against peptidomimetic 1 after selection ([3]; peptidomimetic-exposed lineage 2, population outgrown at 32×wt MIC): 256 mg/L (≈ 120 µM) | MIC against peptidomimetic 1 after 35 generations w/o selection ([3]; peptidomimetic-exposed lineage 3, five passages in unsupplemented MHB): 128 mg/L (≈ 60 µM) | MIC against peptidomimetic 1 after 35 generations w/o selection ([3]; peptidomimetic-exposed lineage 4, five passages in unsupplemented MHB): 128 mg/L (≈ 60 µM) | MIC against peptidomimetic 1 after selection ([3]; peptidomimetic-exposed lineage 4, population outgrown at 32×wt MIC): 256 mg/L (≈ 120 µM) | MIC against peptidomimetic 1 after 35 generations w/o selection ([3]; peptidomimetic-exposed lineage 5, five passages in unsupplemented MHB): 128 mg/L (≈ 60 µM) | MIC against peptidomimetic 1 after selection ([3]; peptidomimetic-exposed lineage 5, population outgrown at 32×wt MIC): 128 mg/L and 64 to 128 mg/L | MIC against peptidomimetic 1 after 35 generations w/o selection ([3]; peptidomimetic-exposed lineage 6, five passages in unsupplemented MHB): 64 to 128 mg/L | MIC against peptidomimetic 1 after 35 generations w/o selection ([3]; peptidomimetic-exposed lineage 7, five passages in unsupplemented MHB): 128 mg/L (≈ 60 µM) | MIC against peptidomimetic 1 after selection ([3]; peptidomimetic-exposed lineage 7, population outgrown at 32×wt MIC): 128 mg/L (≈ 60 µM) | MIC against peptidomimetic 1 after 35 generations w/o selection ([3]; peptidomimetic-exposed lineage 8, five passages in unsupplemented MHB): 32 to 64 mg/L | MIC against peptidomimetic 1 after 35 generations w/o selection ([3]; peptidomimetic-exposed lineage 9, five passages in unsupplemented MHB): 128 mg/L (≈ 60 µM) | MIC against peptidomimetic 1 after 35 generations w/o selection ([3]; peptidomimetic-exposed lineage 10, five passages in unsupplemented MHB): 32 mg/L (≈ 15 µM) | MIC against peptidomimetic 1 after selection ([3]; peptidomimetic-exposed lineage 10, population outgrown at 32×wt MIC): 256 mg/L (≈ 120 µM) | cross-resistance after removal of the selection pressure [4]: lost | lineages that eventually grew at 32×wt MIC ([5]; ten lineages per agent, from 1/16×wt MIC, doubled stepwise, 77 inoculations, approx. 500 generations, 32×wt MIC = 256 µg/mL peptidomimetic 1, 32 µg/mL polymyxin B): All ten | growth of unexposed control lineages at 4×wt MIC ([5]; two controls per agent, 32 µg/mL peptidomimetic 1 or 4 µg/mL polymyxin B): failed to grow
